Laboratory results taken from the NIST ThermoML archive (doi:10.1021/acs.jced.8b00132).
Values joined by “and” are separate entries in the source; they are usually repeats but may differ in a detail not shown here. Equal entries are not always repeated.

O=C(C(F)(F)C(F)(F)F)C(F)(C(F)(F)F)C(F)(F)F [dodecafluoro-2-methylpentan-3-one]
Conditions | thermal conductivity
416.9 K, 36 kPa, Gas, hot wire | 0.02006 W/m/K
416.9 K, 371 kPa, Gas, hot wire | 0.0221 W/m/K
416.9 K, 588 kPa, Gas, hot wire | 0.02223 W/m/K
416.9 K, 16292 kPa, Liquid, transient hot wire | 0.05129 W/m/K
416.91 K, 372 kPa, Gas, hot wire | 0.02173 W/m/K
416.94 K, 50897 kPa, Liquid, transient hot wire | 0.06577 W/m/K
416.94 K, 50918 kPa, Liquid, transient hot wire | 0.06559 W/m/K
416.96 K, 1022 kPa, Gas, transient hot wire | 0.02164 W/m/K
416.96 K, 2206 kPa, Liquid, transient hot wire | 0.04045 W/m/K
416.96 K, 24851 kPa, Liquid, transient hot wire | 0.05549 W/m/K
416.96 K, 24868 kPa, Liquid, transient hot wire | 0.05555 W/m/K
416.96 K, 35761 kPa, Liquid, transient hot wire | 0.06013 W/m/K
416.97 K, 1022 kPa, Gas, transient hot wire | 0.02164 W/m/K
416.97 K, 2207 kPa, Liquid, transient hot wire | 0.04051 W/m/K
416.97 K, 35765 kPa, Liquid, transient hot wire | 0.06009 W/m/K
416.98 K, 10573 kPa, Liquid, transient hot wire | 0.04835 W/m/K
416.98 K, 10595 kPa, Liquid, transient hot wire | 0.04788 W/m/K
417 K, 369 kPa, Gas, hot wire | 0.0224 W/m/K
417 K, 1132 kPa, Gas, transient hot wire | 0.02284 W/m/K
417.01 K, 369 kPa, Gas, hot wire | 0.02218 W/m/K
417.01 K, 1132 kPa, Gas, transient hot wire | 0.02288 W/m/K
417.02 K, 6421 kPa, Liquid, transient hot wire | 0.04518 W/m/K
417.03 K, 36 kPa, Gas, hot wire | 0.01958 W/m/K
417.04 K, 587 kPa, Gas, hot wire | 0.0216 W/m/K
417.04 K, 6421 kPa, Liquid, transient hot wire | 0.0448 W/m/K
417.05 K, 587 kPa, Gas, hot wire | 0.02156 W/m/K
417.06 K, 16291 kPa, Liquid, transient hot wire | 0.05136 W/m/K
417.06 K, 16299 kPa, Liquid, transient hot wire | 0.05141 W/m/K
417.07 K, 1170 kPa, Liquid, transient hot wire | 0.03917 W/m/K
417.07 K, 50875 kPa, Liquid, transient hot wire | 0.06482 W/m/K
417.08 K, 3783 kPa, Liquid, transient hot wire | 0.04192 W/m/K
417.08 K, 3784 kPa, Liquid, transient hot wire | 0.04234 W/m/K
417.08 K, 50878 kPa, Liquid, transient hot wire | 0.06554 W/m/K
417.11 K, 1022 kPa, Gas, transient hot wire | 0.02183 W/m/K
417.11 K, 1023 kPa, Gas, transient hot wire | 0.02181 W/m/K
417.11 K, 24870 kPa, Liquid, transient hot wire | 0.05563 W/m/K
417.11 K, 35758 kPa, Liquid, transient hot wire | 0.06018 W/m/K
417.11 K, 35760 kPa, Liquid, transient hot wire | 0.06018 W/m/K
417.12 K, 368 kPa, Gas, hot wire | 0.02238 W/m/K
417.12 K, 24862 kPa, Liquid, transient hot wire | 0.05569 W/m/K
417.13 K, 2206 kPa, Liquid, transient hot wire | 0.04049 W/m/K
417.13 K, 10587 kPa, Liquid, transient hot wire | 0.0479 W/m/K
417.14 K, 36 kPa, Gas, hot wire | 0.02006 W/m/K
417.15 K, 141 kPa, Gas, hot wire | 0.02023 W/m/K and 0.0203 W/m/K
417.15 K, 588 kPa, Gas, hot wire | 0.02157 W/m/K
417.15 K, 2206 kPa, Liquid, transient hot wire | 0.04048 W/m/K
417.15 K, 10596 kPa, Liquid, transient hot wire | 0.04784 W/m/K
417.16 K, 36 kPa, Gas, hot wire | 0.01976 W/m/K
417.16 K, 367 kPa, Gas, hot wire | 0.02181 W/m/K
417.16 K, 587 kPa, Gas, hot wire | 0.02144 W/m/K
417.17 K, 1132 kPa, Gas, transient hot wire | 0.02232 W/m/K
417.21 K, 6422 kPa, Liquid, transient hot wire | 0.04496 W/m/K
417.21 K, 50843 kPa, Liquid, transient hot wire | 0.06558 W/m/K
417.22 K, 6424 kPa, Liquid, transient hot wire | 0.04481 W/m/K
417.22 K, 16290 kPa, Liquid, transient hot wire | 0.05134 W/m/K
417.23 K, 16286 kPa, Liquid, transient hot wire | 0.05137 W/m/K
417.23 K, 50866 kPa, Liquid, transient hot wire | 0.06561 W/m/K
417.27 K, 36 kPa, Gas, hot wire | 0.02022 W/m/K and 0.02032 W/m/K
417.28 K, 1023 kPa, Gas, transient hot wire | 0.02198 W/m/K and 0.02197 W/m/K
417.28 K, 3783 kPa, Liquid, transient hot wire | 0.04235 W/m/K
417.28 K, 3784 kPa, Liquid, transient hot wire | 0.04243 W/m/K
417.28 K, 24853 kPa, Liquid, transient hot wire | 0.0557 W/m/K
417.28 K, 24856 kPa, Liquid, transient hot wire | 0.0557 W/m/K
417.28 K, 35752 kPa, Liquid, transient hot wire | 0.06016 W/m/K
417.28 K, 35756 kPa, Liquid, transient hot wire | 0.06019 W/m/K
417.29 K, 367 kPa, Gas, hot wire | 0.02172 W/m/K
417.29 K, 996 kPa, Gas, transient hot wire | 0.02211 W/m/K and 0.02184 W/m/K
417.31 K, 140 kPa, Gas, hot wire | 0.02018 W/m/K
417.32 K, 140 kPa, Gas, hot wire | 0.02001 W/m/K
417.32 K, 10582 kPa, Liquid, transient hot wire | 0.04781 W/m/K
417.32 K, 10584 kPa, Liquid, transient hot wire | 0.04786 W/m/K
417.33 K, 788 kPa, Gas, transient hot wire | 0.02096 W/m/K
417.33 K, 791 kPa, Gas, transient hot wire | 0.02134 W/m/K
417.33 K, 2205 kPa, Liquid, transient hot wire | 0.04065 W/m/K
417.34 K, 2205 kPa, Liquid, transient hot wire | 0.0406 W/m/K
417.36 K, 50814 kPa, Liquid, transient hot wire | 0.06551 W/m/K
417.37 K, 50821 kPa, Liquid, transient hot wire | 0.0652 W/m/K
417.39 K, 16280 kPa, Liquid, transient hot wire | 0.05131 W/m/K
417.4 K, 6421 kPa, Liquid, transient hot wire | 0.0453 W/m/K
417.4 K, 6422 kPa, Liquid, transient hot wire | 0.04487 W/m/K
417.41 K, 597 kPa, Gas, transient hot wire | 0.02073 W/m/K
417.42 K, 36 kPa, Gas, hot wire | 0.02028 W/m/K and 0.02029 W/m/K
417.43 K, 595 kPa, Gas, transient hot wire | 0.02069 W/m/K
417.43 K, 1024 kPa, Gas, transient hot wire | 0.02226 W/m/K and 0.02228 W/m/K
